According to patent US6365634B1, “Naturally occurring compounds and their derivatives as cyclooxygenase 2 and/or 5-lipoxygenase inhibitors” (C-P Technology Limited Partnership, priority 1997, dated 2002):

How the values were obtained:
[1] = tested on: human keratinocyte PGE2 production; experiment: Cell-based COX II assay: PGE2 production by cultured human foreskin keratinocytes (enzyme immunoassay); conditions: 5, 1.0, 0.2 and 0.04 uM, 24 hours, high calcium medium
Method: The ability of dehydroabietic acid methyl ester to inhibit the enzymatic activities of COX II and 5-LO was tested using primary cultures of human foreskin keratinocytes. Briefly, human keratinocytes were plated in 48-well plates (Nunc) at an initial density of 2.5×10^4 cells per well. The cultures were maintained in medium 154XP (Cascade Biologics) to which human keratinocyte growth supplement (Cascade Biologics) was added. Cultures were plated initially in medium 154XP containing 0.07 mM CaCl2. Upon reaching […] confluency, the media was exchanged with high calcium medium 154XP containing 1.2 mM CaCl2. Previous studies have shown that an increase in extracellular Ca^2+concentration induces the differentiation of cultured keratinocytes with a concomitant increase in the expression of COX II protein and COX II mRNA with no apparent effect on COX I expression (Leong, J., Hughes-Fulford, M., Rakhlin, A., Maclouf, J., and Goldyne, M., (1996), Exp. Cell Res., V224, p79). Twenty-four hours after switching to the high calcium media, duplicate wells were treated with dehydroabietic acid methyl ester serially diluted in ethanol to produce final concentrations of 5, 1.0, 0.2, and 0.04 uM. Companion cultures were treated with an identical dilution series of the Merck COX II-specific inhibitor DFU. Twenty-four hours later, samples were removed from each treated well (as well as vehicle-treated control wells) and the amount of PGE2 (a product of the COX II pathway) was quantified using a PGE2-specific enzyme immunoassay (Cayman Chemical). ), As was done with the previously described biochemical assays (COX I, COX II, 5-LO, and 15-LO), the percent inhibition was calculated based on a comparison between vehicle treated control cultures and cultures treated with dehydroabietic acid methyl ester or DFU (see Fractionation and Bioassay Analysis of Fractions Derived from Extract-8 above).
The ability of 4-cumylphenol to inhibit the enzymatic activity of COX II was tested using primary cultures of human foreskin keratinocytes. These cell studies were performed in an identical manner to the studies described in Example 6. […] Twenty-four hours later, samples were removed from each treated well (as well as vehicle-treated control wells) and the amount of PGE2 (a product of the COX II pathway) was quantified using a PGE2-specific enzyme immunoassay (Cayman Chemical). ), as was done with the previously described COX I, COX II, and 15-LO biochemical assays (see Example 2B). The percent inhibition was calculated based on a comparison between vehicle treated control cultures and cultures treated with 4-cumylphenol or DFU. […]
To evaluate the biological activities of 3-methoxy aniline, sufficient quantities of the compound were synthesized as detailed in Example 1C (above). […]

human keratinocytes [2] = experiment: Lactate dehydrogenase (LDH) release toxicity assay; type: cell-based; conditions: highest value of any culture treated with 5, 1.0, 0.2 or 0.04 uM
Method: To address the possibility that the inhibition of both PGE2 and LTB4 production by human keratinocytes treated with dehydroabietic acid methyl ester was […], a cell lactate dehydrogenase toxicity assay (Fisher Scientific) was performed. Briefly, lactate dehydrogenase (LDH) is found intracellularly and is released only in response to toxic stimuli and/or cell death. The amount of LDH released into the media of cultured cells is indicative of the degree of toxicity occurring in that culture. To do the assay, 48-well plates of cultured human keratinocytes (as described above for the PGE2 assay) were prepared and treated with the same concentrations of dehydroabietic acid methyl ester as described above for the PGE2 and LTB4 assays. One hour prior to harvesting culture media samples from wells treated with dehydroabietic acid methyl ester, duplicate wells were treated with a cell lysis buffer (Fisher Scientific) that caused 100% cell death to occur in the treated wells. After culture media samples were collected from all wells, the amount of LDH present in each was determined using a colorometric assay (Fisher Scientific). […] The amount of LDH released into the media of cultures treated with dehydroabietic acid methyl ester as well as vehicle-control media was determined using the colorometric assay and expressed as a percentage of that released by the 100% cell death wells.
To address the possibility that the inhibition of PGE2 production by human keratinocytes treated with 4-cumylphenol was due to toxicity, a cell lactate dehydrogenase toxicity assay (Fisher Scientific) was performed. […] After culture media samples were collected from all wells, the amount of LDH present in each was determined using a colorometric assay (Fisher Scientific). […] The amount of LDH released into the media of cultures treated with dehydroabietic acid methyl ester as well as vehicle-control media was determined using the colorometric assay and expressed as a percentage of that released by the 100% cell death wells. […]

human keratinocytes [3] = experiment: Microscopic examination of treated keratinocyte cultures; type: cell-based
human recombinant COX II = molecular target: T1, human recombinant COX II (Homo sapiens, UniProt P35354); experiment: COX II biochemical assay (3H-arachidonic acid conversion, TLC quantitation); conditions: read-out: Percent Inhibition of COX II
T1 construct: purchased Oxford Chemical
T1 sequence (P35354 18-604): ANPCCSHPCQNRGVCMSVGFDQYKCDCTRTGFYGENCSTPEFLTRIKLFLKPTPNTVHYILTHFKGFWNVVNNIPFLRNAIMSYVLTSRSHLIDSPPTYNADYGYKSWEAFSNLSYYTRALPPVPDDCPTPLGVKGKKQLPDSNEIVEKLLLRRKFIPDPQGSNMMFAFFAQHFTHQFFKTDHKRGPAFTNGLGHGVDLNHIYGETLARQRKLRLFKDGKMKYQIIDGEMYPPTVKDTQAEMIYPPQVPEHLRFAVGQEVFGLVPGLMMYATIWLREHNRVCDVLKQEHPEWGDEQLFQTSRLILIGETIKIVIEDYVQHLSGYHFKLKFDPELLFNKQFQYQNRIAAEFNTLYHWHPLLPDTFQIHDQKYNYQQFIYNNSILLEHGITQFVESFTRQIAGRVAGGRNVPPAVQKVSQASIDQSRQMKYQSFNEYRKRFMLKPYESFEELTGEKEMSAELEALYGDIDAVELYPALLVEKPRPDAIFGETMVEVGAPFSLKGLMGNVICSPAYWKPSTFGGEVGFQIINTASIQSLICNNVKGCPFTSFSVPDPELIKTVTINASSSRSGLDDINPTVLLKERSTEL
Method: Two units of recombinant COX II enzyme (corresponding to 0.8 ug total protein) was added followed by 5 uL aliquots of the peat bog extracts yielding a final concentration of the peat extracts of 25 ug/ml. All samples were run in duplicate. […] Reactions were initiated by the addition of ^3H-arachidonic acid (DuPont-NEN) at a final concentration of 50 uM. The reactions were maintained for 5 minutes at 37° C. and stopped by the addition of ice-cold methanol/acetic acid (10:1 v/v).
The assessment of cyclooxygenase activity (both COX I and II) in the presence and absence of the peat bog extracts was based on the quantitation of tlhe radiolabeled arachidonic acid metabolites prostaglandin A2 (PGA2), PGE2, and PGF2-alpha. To do this, a 50 uL sample of each reaction solution was separated via TLC on LK6DF silica plates co-spotted with arachidonic acid, PGA2, and PGF2-alpha and developed in hexane/isopropyl alcohol/ acetic acid (85:15:1 v/v). The bands were visualized by UV-vis or I2 staining and scraped into scintillation vials for quantitation. […] The total enzyme activity (At), the corrected enzyme activity in the presence of an inhibitor (Ai), and % inhibition were calculated by the following equations:
3) Percent Inhibition=100 (1−Ai/ At)

[4] = tested on: human keratinocyte LTB4 production; experiment: Cell-based 5-LO assay: LTB4 production by cultured human keratinocytes (enzyme immunoassay); conditions: 5, 1.0, 0.2 and 0.04 uM, 24 hours, high calcium medium
From the text: In addition to assessing the effect of dehydroabietic acid methyl ester on the production of PGE2 by human keratinocytes, the human keratinocyte culture system was also used to assess for the inhibition of LTB4 production. Keratinocytes have not been used as extensively as other cell types for 5-LO studies, however, human keratinocytes produce appreciable amounts of LTB4 and production of this eicosanoid by cultured keratinocytes is inhibited by known inhibitors of 5-LO (see FIG. 11). To assess for inhibition of LTB4 production, human keratinocytes were cultured as described above. Following introduction of the high calcium media, the identical dilution series of dehydroabietic acid methyl ester as described above in the PGE2 study was added to duplicate wells of keratinocytes. Twenty-four hours later culture media samples were removed from each well and the amount of LTB4 in each sample determined using an enzyme immunoassay specific for LTB4 (Cayman Chemical). As was done with the PGE2 assay described above, the percent inhibition was calculated based on a comparison between vehicle treated control cultures and cultures treated with dehydroabietic acid methyl ester or Rev 5901 (a specific 5-LO inhibitor; Cayman Chemical).

SMILES: CC1(C)OC(=O)C(c2cccc(F)c2)=C1c1ccc(S(C)(=O)=O)cc1 [DFU, reference compound]
- inhibition of PGE2 production by cultured human keratinocytes [1]: Dose-dependent inhibition

SMILES: COc1cccc(NC(=O)C(C)(C)C)c1 [Fraction 3-M-A, propanamide, N-(3-methoxyphenyl)2,2-dimethyl]
- inhibition of PGE2 production by cultured human keratinocytes [1]: inhibited the production of PGE2
- percent toxicity (LDH released) versus the 100% cell death control (human keratinocytes [2]): ≤ 10%
- toxicity when treated cultures were examined microscopically (human keratinocytes [3]): lack of toxicity

SMILES: CS(=O)(=O)Nc1ccc([N+](=O)[O-])cc1Oc1ccccc1 [Nimesulide, reference compound]
- inhibition at 250 µM (human recombinant COX II): 13.3%

SMILES: CCCCCC(O)c1cccc(OCc2ccc3ccccc3n2)c1 (stereo not drawn) [REV 5901, reference compound]
- inhibition of LTB4 production by cultured human keratinocytes [4]: dose-dependent inhibition
